The values that follow come from PubChem BioAssay AID2286 (Southern Research Specialized Biocontainment Screening …, 2010).

This assay can be described thus: MAGI-CCR5 and HeLa-R5-16 cytotoxicity, dose response, cytotoxicity control for HIV-1 fusion inhibitor project, cell-based, MAGI and MAGI-HeLa co-culture (AID 2286).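 On all read-outs here: cells exposed to compound for at least 64 h before ATP readout; 100% = median of DMSO vehicle wells with no ATP signal meaning 0%.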 Particulars: MAGI-CCR5 cells viability, CellTiter-Glo ATP luminescence; for minimum viability: measured here: MAGI minimum viability across doses. Background: ATP-based viability assays read luminescence as a measure of living cells.

[1] abbreviates: MAGI-HeLa co-culture viability, at 50 µM, stronger effect = lower value.
[2] abbreviates: at 3.13 µM, stronger effect = lower value.
[3] abbreviates: at 1.56 µM, stronger effect = lower value.
The mark [4] stands for this setting: at 12.5 µM, stronger effect = lower value.
The mark [5] stands for this setting: at 6.25 µM, stronger effect = lower value.

Activity calls are given as the source filed them.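 How the source made its calls: active means minimum cell viability of 80% or lower across the dose range, counted as toxic; inactive means minimum cell viability above 80%.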

As for `Cc1cc(Cl)ccc1OC(C)C(=O)Nc1ccc(S(=O)(=O)Nc2cnc3ccccc3n2)cc1` (stereo not drawn), under setting [1], the viability (in general, a read-out of living cells in per cent, often relative to untreated cells) is 89.2%. Moreover, under “at 50 µM, stronger effect = lower value”, the minimum viability was 72.9%.
As to `O=C(O)CSc1nc(-c2ccc(Cl)cc2)nc2c1oc1ccccc12`, the viability runs as follows: under setting [1], 108%; (at 25 µM (top of the series)) 86.3% (inactive). The minimum viability under setting [2] stood at 86.2%.
Turning to `O=C(CCN1C(=O)/C(=C/c2cccs2)SC1=S)Nc1ccc(C(=O)O)c(O)c1`, the viability under setting [1] came out at 104%. The minimum viability (at 50 µM, stronger effect = lower value) stood at 66%.
With `O=C(Nc1ccc(Br)cc1C(=O)O)c1ccc2c(c1)C(=O)N(Cc1ccccc1)C2=O`, the viability is 101% under setting [1] and 105% (inactive) (at 50 µM (top of the series)). For the same molecule, the minimum viability under setting [3] is 82.6%.
Consider `O=C(O)COc1ccc(Br)cc1C(c1c(C(=O)O)[nH]c2ccccc12)c1c(C(=O)O)[nH]c2ccccc12`, for which the viability is 95.6% under setting [1] and 91.8% (inactive) (at 50 µM (top of the series)). For the same molecule, for the setting “at 25 µM, stronger effect = lower value”, the minimum viability worked out at 88%.
`CCc1ccc(/C=C2\SC(=S)N(CCCC(=O)Nc3ccccc3C(=O)O)C2=O)cc1`: the viability under setting [1] amounted to 90.6%. Also, the minimum viability (at 50 µM, stronger effect = lower value) turned out to be 70.3%.
As for `O=C(Nc1cccc(C(F)(F)F)c1)c1cccc(NS(=O)(=O)c2ccc(O)c(C(=O)O)c2)c1`, the viability was 107% under setting [1] and 85.7% (inactive) (at 50 µM (top of the series)). Under “at 25 µM, stronger effect = lower value”, the minimum viability turned out to be 83.3%.
Turning to `COc1cc(/C=C2/C(=O)NN(c3ccc(Cl)cc3)C2=O)ccc1OC(=O)c1ccco1`, the viability reads like this: under setting [1], 115%; (at 50 µM (top of the series)) 96.4% (inactive). For the same molecule, the minimum viability (at 50 µM, stronger effect = lower value) was determined as 96.4%.
As to `O=C(O)CN1C(=O)/C(=C\c2cc(Br)ccc2OCc2ccccc2F)SC1=S`, the viability under setting [1] amounted to 113% and the viability (at 50 µM (top of the series)) was 101% (inactive). Further, the minimum viability (at 50 µM, stronger effect = lower value) was 101%.
Regarding `O=C(O)c1ccccc1-c1ccccc1C(=O)Nc1ccc(-c2nc3cc(Cl)ccc3o2)cc1`, the viability under setting [1] was determined as 80.5%. Moreover, where the note is “at 50 µM, stronger effect = lower value”, the minimum viability amounted to 56.8%.
With `Cc1c(Cl)cccc1NS(=O)(=O)c1ccc2c(c1)C1C=CCC1C(c1ccc(C(=O)O)cc1)N2` (stereo not drawn), the viability was 121% under setting [1] and 91% (inactive) (at 50 µM (top of the series)). Moreover, the minimum viability under setting [3] is 87%.
For `COC(=O)c1sc(-c2ccc(C(C)(C)C)cc2)cc1NC(=O)COCC(=O)O`, the viability under setting [1] came to 89%. Moreover, the minimum viability (at 50 µM, stronger effect = lower value) was found to be 74.5%.
On the same counts, the results for `O=C(CCN1C(=O)/C(=C\C=C\c2ccccc2)SC1=S)Nc1ccccc1C(=O)O` are 121% and 74.5%.
On the same counts, the results for `COc1cc(NS(=O)(=O)c2ccc(Nc3nc(-c4ccccc4)cs3)cc2)nc(OC)n1` are 82.3% and 67.3%.
In the case of `COC(=O)c1sc(-c2ccc(C(C)(C)C)cc2)cc1NC(=O)CSCC(=O)O`, the viability is, setting by setting: under setting [1], 105%; (at 50 µM (top of the series)) 83.5% (inactive). Moreover, the minimum viability (at 50 µM, stronger effect = lower value) came to 83.5%.
Regarding `CCOc1ccc(C2C(C(=O)Nc3ccccc3)=C(C)N=c3s/c(=C/c4cccc(OCC(=O)O)c4)c(=O)n32)cc1` (stereo not drawn), the viability reads like this: under setting [1], 94.8%; (at 50 µM (top of the series)) 96.2% (inactive). In addition, the minimum viability under setting [3] is 87.8%.
Consider `O=C(CN1C(=O)/C(=C2\SC(=S)N(CCS(=O)(=O)O)C2=O)c2ccccc21)Nc1cccc(Br)c1`, for which the viability is, setting by setting: under setting [1], 113%; (at 50 µM (top of the series)) 83.3% (inactive). For the same molecule, the minimum viability (at 50 µM, stronger effect = lower value) is 83.3%.
Consider `CC(C)(C)CC(C)(C)c1ccc(OCC(=O)N/N=C/c2ccc(S(=O)(=O)O)o2)cc1`, for which the viability reads like this: under setting [1], 104%; (at 50 µM (top of the series)) 87.8% (inactive). The minimum viability under setting [4] is 81.1%.
Turning to `O=C(O)c1ccccc1NS(=O)(=O)c1ccc(NNC(=S)Nc2ccc(OC(F)F)cc2)c([N+](=O)[O-])c1`, the viability is, setting by setting: under setting [1], 86.2%; (at 50 µM (top of the series)) 101% (inactive). Besides, the minimum viability under setting [2] amounted to 93%.
On to `N#Cc1c(-c2cccs2)nc(SCc2ccc(Cl)cc2)[nH]c1=O`, for which the viability under setting [1] came to 118%. Moreover, the minimum viability (at 50 µM, stronger effect = lower value) is 73%.
On the same counts, the results for `Cc1ccc(NC(=O)COc2cccc(/C=C3\SC(=S)N(CCC(=O)O)C3=O)c2)cc1Cl` are 94% and 77%.
Regarding `O=C(COc1ccc(Cl)cc1Cl)Nc1ccc(C(=O)Nc2ccccc2C(=O)O)cc1`, under setting [1], the viability was determined as 92.6%. For the same molecule, under “at 50 µM, stronger effect = lower value”, the minimum viability was 71.9%.
On the same counts, the results for `COc1cc(/C=C(\C#N)c2nc3ccc(C)cc3[nH]2)cc([N+](=O)[O-])c1O` are 90.4% and 74.1%.
On to `Cc1cc(N2C(=O)C(O)=C(C(=O)c3ccc(C)o3)C2c2cccc(Oc3ccccc3)c2)no1` (stereo not drawn), for which the viability is 89% under setting [1] and 82.1% (inactive) (at 50 µM (top of the series)). In addition, for the setting “at 50 µM, stronger effect = lower value”, the minimum viability came out at 82.1%.
As to `O=C(CCCN1C(=O)/C(=C/c2cccs2)SC1=S)Nc1ccc(O)c(C(=O)O)c1`, the viability under setting [1] was 106%. In addition, where the note is “at 50 µM, stronger effect = lower value”, the minimum viability came to 62.3%.
On the same counts, the results for `O=C(COc1cccc2ccccc12)Nc1ccc(Cl)cc1C(=O)O` are 86.1% and 67.5%.
On the same counts, the results for `COc1cccc(-c2coc3c(C)c4oc(=O)c(CCC(=O)O)c(C)c4cc23)c1` are 83.6% and 55.5%.
For `O=C(NCCc1ccccc1)c1ccc2c(=O)[nH]c3c(C(=O)NCC4CCCO4)sc(=S)n3c2c1` (stereo not drawn), under setting [1], the viability turned out to be 115%. Further, the minimum viability (at 50 µM, stronger effect = lower value) was 70.9%.
`Cc1ccc(N2C(=O)/C(=C/c3ccc(CN(CCC#N)S(C)(=O)=O)o3)C(=O)NC2=S)cc1C`: the viability was 98.6% under setting [1] and 89.2% (inactive) (at 50 µM (top of the series)). In addition, the minimum viability under setting [4] amounted to 84.4%.
Consider `CC(C)CS(=O)(=O)C1=NSC2=NC(=O)/C(=C\c3ccc(OC(=O)c4ccco4)cc3)C(=N)N21`, for which the viability by setting is: under setting [1], 104%; (at 50 µM (top of the series)) 95.1% (inactive). The minimum viability under setting [5] is 85.3%.
For the molecule `COc1ccc(-c2coc3c(C)c4oc(=O)c(CCC(=O)O)c(C)c4cc23)cc1`, the viability under setting [1] was 91.9%. Besides, under “at 50 µM, stronger effect = lower value”, the minimum viability was determined as 47.8%.
Turning to `Cc1cc(/C=C2/C(=N)N3C(=NC2=O)SN=C3S(C)(=O)=O)c(C)n1-c1ccccc1`, the viability is, setting by setting: under setting [1], 116%; (at 50 µM (top of the series)) 104% (inactive). Also, the minimum viability (at 0.2 µM, stronger effect = lower value) was determined as 101%.
Consider `COc1cc(/C=C2\SC(=Nc3ccccc3)N(CCc3c[nH]c4ccccc34)C2=O)ccc1OC(C)C(=O)O` (stereo not drawn), for which the viability is 103% under setting [1] and 101% (inactive) (at 25 µM (top of the series)). The minimum viability under setting [5] came out at 95.5%.
As for `CC(C)(C)c1cc(-c2csc(Nc3ccccc3)[n+]2Cc2ccc(C(=O)O)cc2)cc(C(C)(C)C)c1O`, the viability under setting [1] came out at 96.4%. The minimum viability (at 50 µM, stronger effect = lower value) amounted to 72.2%.
For `Cc1ccc(S(=O)(=O)/N=C2/NC(=O)/C(=C/c3cc([N+](=O)[O-])ccc3O)S2)cc1`, the viability under setting [1] was determined as 99.3% and the viability (at 50 µM (top of the series)) was 86% (inactive). For the same molecule, the minimum viability (at 50 µM, stronger effect = lower value) was 86%.
`COc1ccccc1NS(=O)(=O)c1cccc(-n2c(O)c(C=Nc3ccccc3C(=O)O)c3ccccc3c2=O)c1`: under setting [1], the viability stood at 111%. The minimum viability (at 50 µM, stronger effect = lower value) is 51.4%.
Consider `CSc1ccc(C(c2c(C(=O)O)[nH]c3ccccc23)c2c(C(=O)O)[nH]c3ccccc23)cc1`, for which the viability runs as follows: under setting [1], 89.8%; (at 50 µM (top of the series)) 92.8% (inactive). In addition, the minimum viability under setting [5] worked out at 90.5%.
With `Oc1c(Br)cc(Br)c(/C=N/n2c(-c3ccccc3)n[nH]c2=S)c1Br`, the viability is, setting by setting: under setting [1], 99.3%; (at 50 µM (top of the series)) 90.8% (inactive). In addition, where the note is “at 50 µM, stronger effect = lower value”, the minimum viability was determined as 90.8%.
`O=C(O)c1[nH]c2ccccc2c1C(c1c(F)cccc1Cl)c1c(C(=O)O)[nH]c2ccccc12`: the viability is 114% under setting [1] and 104% (inactive) (at 50 µM (top of the series)). The minimum viability (at 0.1 µM, stronger effect = lower value) was 87.9%.
`O=C(O)C1Nc2c(cccc2C(F)(F)F)C2C=CCC12` (stereo not drawn): the viability runs as follows: under setting [1], 124%; (at 50 µM (top of the series)) 106% (inactive). Further, the minimum viability under setting [4] stood at 86.1%.
Regarding `O=C(O)CN1C(=O)/C(=C\c2cc(Br)ccc2OCc2ccccc2Cl)SC1=S`, the viability runs as follows: under setting [1], 112%; (at 50 µM (top of the series)) 106% (inactive). In addition, the minimum viability under setting [2] turned out to be 94.6%.
Consider `CCc1nnc(NS(=O)(=O)c2ccc(NC(=S)NC(=O)/C=C/c3ccc(F)cc3)cc2)s1`, for which the viability reads like this: under setting [1], 115%; (at 50 µM (top of the series)) 89.6% (inactive). The minimum viability under setting [4] was 83.8%.
Take `COc1cc(/C=C2\SC(=O)N(c3ccccc3Cl)C2=O)cc([N+](=O)[O-])c1O`: the viability under setting [1] was found to be 85.2%. Also, the minimum viability (at 50 µM, stronger effect = lower value) turned out to be 50%.
Take `Cc1c(CCC(=O)O)c(=O)oc2c(C)c3occ(-c4ccc(Br)cc4)c3cc12`: the viability under setting [1] stood at 97.7%. Also, the minimum viability under setting [4] is 72.5%.
As for `COc1cc(/C=C2\C(=N)N3N=C(S(C)(=O)=O)SC3=NC2=O)ccc1OS(=O)(=O)c1ccccc1`, the viability by setting is: under setting [1], 113%; (at 50 µM (top of the series)) 91.8% (inactive). Under “at 50 µM, stronger effect = lower value”, the minimum viability was determined as 91.8%.
Take `COc1ccc(N=C2S/C(=C\c3ccc(OCC(=O)O)cc3)C(=O)N2CCc2c[nH]c3ccccc23)cc1`: the viability under setting [1] stood at 173% and the viability (at 50 µM (top of the series)) was 93.7% (inactive). For the same molecule, for the setting “at 25 µM, stronger effect = lower value”, the minimum viability is 90.8%.
